Common to all, as to assay type: binding
Common to all, as to details: Compound Concentration 10 µM

Experiment [1] addresses T1, panel of 442 kinases (Homo sapiens, UniProt O14578).
T1 construct: purchased KINOMEscan
The text has this: (§1) We assessed the selectivity of members of this scaffold using the KINOMEscan methodology across a near comprehensive panel of 442 kinases [[18,27]].

In experiment [2] the target is T2, panel of 442 kinases (Homo sapiens, UniProt P21709).
T2 construct: purchased KINOMEscan
T2 sequence (P21709 26-976): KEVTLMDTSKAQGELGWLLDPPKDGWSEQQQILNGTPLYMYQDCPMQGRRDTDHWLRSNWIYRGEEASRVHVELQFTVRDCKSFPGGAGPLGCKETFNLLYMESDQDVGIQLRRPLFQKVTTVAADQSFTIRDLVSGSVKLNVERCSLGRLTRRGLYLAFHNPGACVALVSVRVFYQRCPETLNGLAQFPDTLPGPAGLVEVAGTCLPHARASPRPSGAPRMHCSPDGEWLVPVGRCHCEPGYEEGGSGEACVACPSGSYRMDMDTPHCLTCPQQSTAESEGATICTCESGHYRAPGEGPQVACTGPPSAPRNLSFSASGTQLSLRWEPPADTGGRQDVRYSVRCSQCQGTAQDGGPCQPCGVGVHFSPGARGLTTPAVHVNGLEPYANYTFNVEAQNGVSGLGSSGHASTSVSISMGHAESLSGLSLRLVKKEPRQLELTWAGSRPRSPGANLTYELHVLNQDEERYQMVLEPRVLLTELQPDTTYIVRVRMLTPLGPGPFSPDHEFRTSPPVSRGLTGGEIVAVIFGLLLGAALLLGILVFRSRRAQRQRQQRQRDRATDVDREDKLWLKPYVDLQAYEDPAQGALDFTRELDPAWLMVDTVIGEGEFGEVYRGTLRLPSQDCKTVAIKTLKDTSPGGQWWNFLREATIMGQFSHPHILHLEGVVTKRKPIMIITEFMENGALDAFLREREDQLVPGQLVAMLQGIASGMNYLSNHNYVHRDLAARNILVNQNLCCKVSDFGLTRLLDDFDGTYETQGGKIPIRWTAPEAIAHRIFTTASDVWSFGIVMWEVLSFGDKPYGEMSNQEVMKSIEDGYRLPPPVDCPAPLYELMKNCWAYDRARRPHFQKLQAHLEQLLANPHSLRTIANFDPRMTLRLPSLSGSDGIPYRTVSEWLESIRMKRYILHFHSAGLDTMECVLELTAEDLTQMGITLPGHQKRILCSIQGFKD
From the text: as §1

Experiment [3] addresses T3, panel of 442 kinases (Homo sapiens, UniProt P21860).
T3 construct: purchased KINOMEscan
From the text: as §1

T3 sequence (P21860 20-1342): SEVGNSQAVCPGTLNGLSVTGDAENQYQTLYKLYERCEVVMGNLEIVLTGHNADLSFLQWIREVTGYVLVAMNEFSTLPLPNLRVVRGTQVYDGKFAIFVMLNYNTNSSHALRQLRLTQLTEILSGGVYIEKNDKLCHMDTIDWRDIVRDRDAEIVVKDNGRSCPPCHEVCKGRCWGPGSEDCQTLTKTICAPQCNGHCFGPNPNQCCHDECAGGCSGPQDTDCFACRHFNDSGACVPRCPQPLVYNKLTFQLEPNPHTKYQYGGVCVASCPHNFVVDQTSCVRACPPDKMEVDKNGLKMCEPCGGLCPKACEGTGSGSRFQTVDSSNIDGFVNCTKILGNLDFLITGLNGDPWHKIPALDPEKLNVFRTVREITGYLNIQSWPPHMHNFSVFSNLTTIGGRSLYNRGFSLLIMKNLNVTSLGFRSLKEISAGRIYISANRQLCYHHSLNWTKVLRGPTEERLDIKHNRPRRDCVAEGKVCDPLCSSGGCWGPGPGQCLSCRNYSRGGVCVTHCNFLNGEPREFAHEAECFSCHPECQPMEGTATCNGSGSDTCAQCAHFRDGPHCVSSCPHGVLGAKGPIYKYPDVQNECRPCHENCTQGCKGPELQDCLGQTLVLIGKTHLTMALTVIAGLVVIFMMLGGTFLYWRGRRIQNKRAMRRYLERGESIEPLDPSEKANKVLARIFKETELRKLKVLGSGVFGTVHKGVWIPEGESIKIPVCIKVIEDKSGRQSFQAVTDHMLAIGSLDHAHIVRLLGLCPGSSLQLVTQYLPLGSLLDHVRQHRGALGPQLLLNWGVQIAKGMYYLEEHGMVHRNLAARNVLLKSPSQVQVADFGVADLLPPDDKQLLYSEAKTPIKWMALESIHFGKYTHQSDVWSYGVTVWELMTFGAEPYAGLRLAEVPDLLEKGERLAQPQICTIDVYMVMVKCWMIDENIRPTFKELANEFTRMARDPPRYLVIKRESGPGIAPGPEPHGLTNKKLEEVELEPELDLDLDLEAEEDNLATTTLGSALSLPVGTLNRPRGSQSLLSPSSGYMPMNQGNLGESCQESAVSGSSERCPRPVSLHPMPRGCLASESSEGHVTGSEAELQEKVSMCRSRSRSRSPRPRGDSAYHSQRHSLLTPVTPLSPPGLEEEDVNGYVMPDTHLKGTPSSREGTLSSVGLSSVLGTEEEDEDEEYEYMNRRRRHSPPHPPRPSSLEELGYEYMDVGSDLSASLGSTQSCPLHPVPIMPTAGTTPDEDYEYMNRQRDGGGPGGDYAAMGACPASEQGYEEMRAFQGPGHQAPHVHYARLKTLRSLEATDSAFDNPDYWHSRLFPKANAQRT
T1 sequence (O14578 whole entry): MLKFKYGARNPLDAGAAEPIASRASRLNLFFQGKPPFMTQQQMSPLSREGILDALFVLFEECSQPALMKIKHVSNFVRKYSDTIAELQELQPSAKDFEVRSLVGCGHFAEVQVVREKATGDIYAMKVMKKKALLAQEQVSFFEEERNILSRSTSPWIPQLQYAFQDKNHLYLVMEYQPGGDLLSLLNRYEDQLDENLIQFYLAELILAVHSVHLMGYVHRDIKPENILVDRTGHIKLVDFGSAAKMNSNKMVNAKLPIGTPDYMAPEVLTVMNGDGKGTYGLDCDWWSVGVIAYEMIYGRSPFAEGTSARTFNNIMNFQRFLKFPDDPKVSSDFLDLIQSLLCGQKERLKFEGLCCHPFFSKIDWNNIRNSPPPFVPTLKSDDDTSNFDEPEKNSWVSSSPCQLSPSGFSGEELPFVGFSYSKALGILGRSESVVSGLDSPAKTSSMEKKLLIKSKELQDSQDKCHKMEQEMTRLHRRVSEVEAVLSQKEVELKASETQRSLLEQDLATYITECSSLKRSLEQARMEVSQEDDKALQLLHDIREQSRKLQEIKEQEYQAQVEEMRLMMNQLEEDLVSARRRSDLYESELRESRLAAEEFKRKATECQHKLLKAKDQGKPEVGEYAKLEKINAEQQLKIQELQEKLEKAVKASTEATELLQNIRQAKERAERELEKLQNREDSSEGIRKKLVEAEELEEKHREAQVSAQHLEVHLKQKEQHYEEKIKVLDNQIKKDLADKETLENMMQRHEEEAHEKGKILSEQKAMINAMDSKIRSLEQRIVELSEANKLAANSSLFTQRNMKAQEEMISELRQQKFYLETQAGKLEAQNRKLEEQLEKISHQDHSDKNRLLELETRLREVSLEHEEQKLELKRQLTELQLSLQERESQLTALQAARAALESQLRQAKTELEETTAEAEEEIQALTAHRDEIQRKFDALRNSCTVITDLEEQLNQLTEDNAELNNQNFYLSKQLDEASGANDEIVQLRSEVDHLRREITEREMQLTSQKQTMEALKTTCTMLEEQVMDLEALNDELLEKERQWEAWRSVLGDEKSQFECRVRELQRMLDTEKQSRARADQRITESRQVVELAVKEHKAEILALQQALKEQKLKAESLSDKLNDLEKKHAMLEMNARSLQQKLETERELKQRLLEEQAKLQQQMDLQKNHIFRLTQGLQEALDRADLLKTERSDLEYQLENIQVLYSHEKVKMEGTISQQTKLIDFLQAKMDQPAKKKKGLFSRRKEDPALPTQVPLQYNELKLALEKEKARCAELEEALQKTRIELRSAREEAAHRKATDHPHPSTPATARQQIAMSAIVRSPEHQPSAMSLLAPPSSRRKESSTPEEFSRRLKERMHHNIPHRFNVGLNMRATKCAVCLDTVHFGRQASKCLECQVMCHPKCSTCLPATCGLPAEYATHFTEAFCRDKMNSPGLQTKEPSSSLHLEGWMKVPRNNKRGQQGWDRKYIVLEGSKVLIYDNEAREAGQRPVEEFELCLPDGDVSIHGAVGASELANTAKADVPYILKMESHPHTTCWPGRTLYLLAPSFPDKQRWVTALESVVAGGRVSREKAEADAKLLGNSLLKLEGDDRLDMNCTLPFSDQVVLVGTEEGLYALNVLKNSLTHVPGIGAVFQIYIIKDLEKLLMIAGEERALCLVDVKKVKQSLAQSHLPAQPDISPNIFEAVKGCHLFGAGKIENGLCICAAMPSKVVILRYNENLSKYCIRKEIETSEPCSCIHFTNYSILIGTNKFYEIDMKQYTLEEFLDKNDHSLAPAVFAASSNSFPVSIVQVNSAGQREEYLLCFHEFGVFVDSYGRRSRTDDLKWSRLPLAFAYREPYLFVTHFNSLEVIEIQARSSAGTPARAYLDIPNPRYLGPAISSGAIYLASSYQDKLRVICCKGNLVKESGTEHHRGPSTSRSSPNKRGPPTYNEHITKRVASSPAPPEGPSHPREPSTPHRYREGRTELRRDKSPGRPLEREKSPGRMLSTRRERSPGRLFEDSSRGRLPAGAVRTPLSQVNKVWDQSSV

On to `COc1cc(C(=O)N2CCC(N3CCN(C)CC3)CC2)ccc1Nc1ncc2c(n1)N(C)c1ccccc1C(=O)N2C` [15 (LRRK2-IN-1)], for which, at panel of 442 kinases [1], the “KINOMEscan: CIT” value is 99. Besides, the “KINOMEscan: EPHA1” value at panel of 442 kinases [2] stood at 100. The “KINOMEscan: ERBB3” value at panel of 442 kinases [3] was 100.

In the case of `COc1cc(C(=O)N2CCC(N3CCN(C)CC3)CC2)ccc1Nc1ncc2c(n1)N1CCc3cccc(c31)C(=O)N2C` [Compound 24], the “KINOMEscan: CIT” value at panel of 442 kinases [1] amounted to 1.5.

For the compound `COc1cc(C(=O)N2CCC(N3CCN(C)CC3)CC2)ccc1Nc1ncc2c(n1)N(C1CCCC1)c1ccccc1C(=O)N2C` [Compound 25, 11-cyclopentyl-2-((2-methoxy-4-(4-(4-methylpiperazin-1-yl)piperidine-1-carbonyl)phenyl)amino)-5-methyl-5H-benzo[e]pyrimido[5,4-b][1,4]diazepin-6(11H)-one], the “KINOMEscan: CIT” value on panel of 442 kinases [1] is listed as 66. The “KINOMEscan: EPHA1” value at panel of 442 kinases [2] came out at 100. Further, the “KINOMEscan: ERBB3” value on panel of 442 kinases [3] amounted to 100.

Take `CCOc1cc(C(=O)N2CCC(N3CCN(C)CC3)CC2)ccc1Nc1ncc2c(n1)N(C1CCCC1)c1ccccc1C(=O)N2C` [Compound 26]: the “KINOMEscan: CIT” value on panel of 442 kinases [1] stood at 98. Also, at panel of 442 kinases [2], the “KINOMEscan: EPHA1” value was 98. Also, the “KINOMEscan: ERBB3” value on panel of 442 kinases [3] is given as 100.

The record behind these values is paper PMC3914206.
